The series is described as follows: recombinant barcode read abundance after kanamycin selection (control-corrected) (log10(CPM+1)); higher = more efficient recombination; sequences stand for … in AGTGCAGAGAAAATCGGCCAGTTTTCTCTGCCTGCAGTCCGCATGCCGT…AGATTTATGCAGCGGACTGCCTTTCTCCCAAAGTGATAAACCGGACAGTATCATGGACCGGTTTTCCCGGTAATCCGTATTTGCAAGGTTGGTTTCACT; site = the 11-nt target. The protocol: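 Pooled E. coli target-specificity screen for the IS621 bridge recombinase. Each library plasmid pairs an 11-nt target (CT core) with a bridge RNA whose target-binding loop (9-nt LTG + 4-nt RTG) is reprogrammed; the rest of the 177-nt WT IS621 bridge RNA scaffold is fixed. The plasmid is co-electroporated with a WT donor plasmid; recombinase is induced with 0.1 mM IPTG and recombinants are selected on kanamycin. Recombinant barcodes are sequenced, converted to CPM, averaged over two biological replicates and corrected by the unselected control CPM. Molecule = full bridge RNA written as DNA: LTG = specificity nt 1-9, RTG = reverse complement of specificity nt 8-11, in the WT scaffold.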
Turning to “AGAAAGTCTTGGGTTCTAACCTGTTGCGT (site AGAGAGTCTAG)”, the “recombinant barcode read abundance (log10)” value turned out to be 0.363. As for “AGAAATACTTGGGTTCTAACCTGTTGCCG (site AGAAATACTCG)”, the figure is 1.07. For “AGAAATACTTGGGTTCTAACCTGTTGCCG (site GTCCTACCTTA)” the value was 0.0574. For “AGAACAACTTGGGTTCTAACCTGTTGCCT (site AGAACAACTAG)” the value was 0.388; for “AGAACAACTTGGGTTCTAACCTGTTGCCT (site AGCACAACTAG)”, 0.035. For the sequence “AGAACAACTTGGGTTCTAACCTGTTGCCT (site AGGACAACTAG)”, the “recombinant barcode read abundance (log10)” value was found to be 0.456. For “AGAACAACTTGGGTTCTAACCTGTTGCCT (site AGTACAACTAG)”, the “recombinant barcode read abundance (log10)” value amounted to 0.102. As for “AGAACTACTTGGGTTCTAACCTGTTGCCA (site AGAACTACTTG)”, the figure is 0.0417; as for “AGAACTACTTGGGTTCTAACCTGTTGCCA (site CTCGTGTCTAT)”, 0.0514; as for “AGAAGTACTTGGGTTCTAACCTGTTGCGG (site AGAAGTACTCC)”, 1.86.

As to “AGAAGTACTTGGGTTCTAACCTGTTGCGG (site GTAAGTACTCC)”, the “recombinant barcode read abundance (log10)” value came to 0.0235. For “AGAATATCTTGGGTTCTAACCTGTTGCCT (site AGAATATCTAG)” the value was 0.834.

As to “AGAATATCTTGGGTTCTAACCTGTTGCCT (site AGATTATCTAG)”, the “recombinant barcode read abundance (log10)” value amounted to 0.193. Turning to “AGACATCCTTGGGTTCTAACCTGTTGCTT (site AGACATCCTAA)”, the “recombinant barcode read abundance (log10)” value amounted to 0.948.

With “AGACATCCTTGGGTTCTAACCTGTTGCTT (site AGACCTCCTAA)”, the “recombinant barcode read abundance (log10)” value came to 0.0971.

Turning to “AGACATCCTTGGGTTCTAACCTGTTGCTT (site AGACGTCCTAA)”, the “recombinant barcode read abundance (log10)” value turned out to be 0.0527.

Consider “AGACATCCTTGGGTTCTAACCTGTTGCTT (site AGACTTCCTAA)”, for which the “recombinant barcode read abundance (log10)” value was determined as 0.195. Take “AGACCACCTTGGGTTCTAACCTGTTGCCT (site AAACCACCTAG)”: the “recombinant barcode read abundance (log10)” value was 0.383. As for “AGACCACCTTGGGTTCTAACCTGTTGCCT (site ACACCACCTAG)”, the figure is 0.234.

In the case of “AGACCACCTTGGGTTCTAACCTGTTGCCT (site AGACCACCTAG)”, the “recombinant barcode read abundance (log10)” value is 1.82.

Consider “AGACCACCTTGGGTTCTAACCTGTTGCCT (site ATACCACCTAG)”, for which the “recombinant barcode read abundance (log10)” value came out at 0.847. As for “AGACGGACTTGGGTTCTAACCTGTTGCCA (site AGACGGACTTG)”, the “recombinant barcode read abundance (log10)” value turned out to be 1.68. As for “AGACGGACTTGGGTTCTAACCTGTTGCCA (site CTTGCTCCTAT)”, the figure is 0.145. As for “AGACTAGCTTGGGTTCTAACCTGTTGCGT (site AGACTAGCTAC)”, the figure is 2.51. For “AGACTAGCTTGGGTTCTAACCTGTTGCGT (site TTACTAGCTAC)”, the “recombinant barcode read abundance (log10)” value was 0.255.

Take “AGACTCCCTTGGGTTCTAACCTGTTGCCT (site AGACTCCCTAG)”: the “recombinant barcode read abundance (log10)” value came to 1.22.

Consider “AGACTCCCTTGGGTTCTAACCTGTTGCCT (site AGCCTCCCTAG)”, for which the “recombinant barcode read abundance (log10)” value was 0.223.

For the sequence “AGACTCCCTTGGGTTCTAACCTGTTGCCT (site AGGCTCCCTAG)”, the “recombinant barcode read abundance (log10)” value turned out to be 0.0602. As for “AGACTCCCTTGGGTTCTAACCTGTTGCCT (site AGTCTCCCTAG)”, the figure is 0.213. As for “AGAGAACCTTGGGTTCTAACCTGTTGCCT (site AGAGAACCTAG)”, the figure is 2.33; as for “AGAGAACCTTGGGTTCTAACCTGTTGCCT (site CGAGAACCTAG)”, 0.415. As for “AGAGAACCTTGGGTTCTAACCTGTTGCCT (site GGAGAACCTAG)”, the figure is 0.219; as for “AGAGAACCTTGGGTTCTAACCTGTTGCCT (site TGAGAACCTAG)”, 1.14; as for “AGAGAATCTTGGGTTCTAACCTGTTGCCT (site AGAGAATCTAG)”, 1.28. As to “AGAGAATCTTGGGTTCTAACCTGTTGCCT (site AGCGAATCTAG)”, the “recombinant barcode read abundance (log10)” value turned out to be 0.165. As for “AGAGAATCTTGGGTTCTAACCTGTTGCCT (site AGGGAATCTAG)”, the figure is 0.13. For “AGAGAATCTTGGGTTCTAACCTGTTGCCT (site AGTGAATCTAG)” the value was 0.196.

With “AGAGATGCTTGGGTTCTAACCTGTTGCAG (site AGAGATGCTCT)”, the “recombinant barcode read abundance (log10)” value was found to be 1.8. As for “AGAGATGCTTGGGTTCTAACCTGTTGCAG (site AGAGGAGCTCT)”, the “recombinant barcode read abundance (log10)” value was found to be 0.289. As for “AGAGCCACTTGGGTTCTAACCTGTTGCTA (site AGAGCCACTTA)”, the figure is 2.09; as for “AGAGCCACTTGGGTTCTAACCTGTTGCTA (site GCCATTCCTAT)”, 0.0124; as for “AGAGGGTCTTGGGTTCTAACCTGTTGCTT (site AGAGGGTCTAA)”, 1.82.

As for “AGAGGGTCTTGGGTTCTAACCTGTTGCTT (site CGAGGGTCTAA)”, the “recombinant barcode read abundance (log10)” value was determined as 0.186. For “AGAGGGTCTTGGGTTCTAACCTGTTGCTT (site GGAGGGTCTAA)” the value was 0.0269; for “AGAGGGTCTTGGGTTCTAACCTGTTGCTT (site TGAGGGTCTAA)”, 0.606.

“AGATCGGCTTGGGTTCTAACCTGTTGCCT (site AGATCGGCTAG)”: the “recombinant barcode read abundance (log10)” value stood at 0.377. As for “AGATCGGCTTGGGTTCTAACCTGTTGCCT (site AGGTCGGCTAG)”, the “recombinant barcode read abundance (log10)” value worked out at 0.0375.

Turning to “AGATTGACTTGGGTTCTAACCTGTTGCCA (site AGATTCACTAG)”, the “recombinant barcode read abundance (log10)” value was determined as 0.328. As for “AGATTGACTTGGGTTCTAACCTGTTGCCA (site AGATTGACTTG)”, the figure is 0.193. As for “AGATTGCCTTGGGTTCTAACCTGTTGCCT (site AGATTGCCTAG)”, the figure is 0.489; as for “AGATTGCCTTGGGTTCTAACCTGTTGCCT (site TGATTTCCTAG)”, 0; as for “AGCAGAGCTTGGGTTCTAACCTGTTGCGG (site AGCAGAGCTCA)”, 1.12. “AGCAGAGCTTGGGTTCTAACCTGTTGCGG (site AGCAGAGCTCC)”: the “recombinant barcode read abundance (log10)” value was 1.95. As for “AGCAGAGCTTGGGTTCTAACCTGTTGCGG (site AGCAGAGCTCG)”, the figure is 0.0598; as for “AGCAGAGCTTGGGTTCTAACCTGTTGCGG (site AGCAGAGCTCT)”, 1.1.

As to “AGCAGCCCTTGGGTTCTAACCTGTTGCAG (site AGCAGCCCTCT)”, the “recombinant barcode read abundance (log10)” value was 1.72. As for “AGCAGCCCTTGGGTTCTAACCTGTTGCAG (site GTTCCAGCTAG)”, the figure is 0.0963. As for “AGCATAACTTGGGTTCTAACCTGTTGCCT (site AGCATAACTAG)”, the figure is 0.187. For “AGCATAACTTGGGTTCTAACCTGTTGCCT (site AGGAGAACTAG)” the value was 0.261.

The values are drawn from the supplement of paper PMC11208160.
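Note: IS621 recombinase and bridge RNA in Escherichia coli cells.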
